Earlier results on two compounds are cited in patent US6355677B1, “Adrenoleukodystrophy treatments and drug screening” (The Johns Hopkins University, priority 1998, dated 2002).

For data set [1] the following is noted: active ingredient of Lorenzo oil; cited from earlier work.
For data set [2] the following is noted: in rats; cited from earlier work.

Molecules are shown by their SMILES.

Take `CCCCCCCC/C=C\CCCCCCCCCCCC(=O)O` [erucic acid]: the Brain entry entry in data set [1] was “does not get into the brain”. In the case of `O=C(O)Cc1ccccc1` [phenylacetate], the Blood-brain barrier passage entry in data set [2] was “can cross the blood-brain barrier”.
